Measurements: ChEMBL document CHEMBL1146731, “Design, synthesis, and structure-activity relationships of pyrazolo[3,4-d]pyrimidines: a novel class of potent enterovirus inhibitors” (Bioorg Med Chem Lett, 2004)

What was measured:
[1] = tested on: Influenza A virus; assay: Inhibitory concentration of compound against formation of Influenza A virus (WSN) plaque in plaque reduction assay; format: functional, organism-based
[2] = tested on: Echovirus; assay: Inhibitory concentration of compound against formation of Echovirus 9 virus plaque in plaque reduction assay; format: functional, organism-based
[3] = tested on: Human rhinovirus sp.; assay: Inhibitory concentration of compound against formation of Human rhinovirus 14 plaque in plaque reduction assay; format: functional, organism-based
[4] = tested on: Coxsackievirus; assay: Inhibitory concentration of compound against formation of Coxsackievirus B6 plaque in plaque reduction assay; format: functional, organism-based
[5] = tested on: Coxsackievirus; assay: Inhibitory concentration of compound against formation of Coxsackievirus B1 plaque in plaque reduction assay; format: functional, organism-based
[6] = tested on: Coxsackievirus; assay: Inhibitory concentration of compound against formation of Coxsackievirus A16 plaque in plaque reduction assay; format: functional, organism-based
[7] = tested on: Coxsackievirus; assay: Inhibitory concentration of compound against formation of Coxsackievirus B4 plaque in plaque reduction assay; format: functional, organism-based
[8] = tested on: Influenza B virus; assay: Inhibitory concentration of compound against formation of Influenza A virus (HK) plaque in plaque reduction assay; format: functional, organism-based
[9] = tested on: Coxsackievirus; assay: Inhibitory concentration of compound against formation of Coxsackievirus B3 plaque in plaque reduction assay; format: functional, organism-based
[10] = tested on: Echovirus; assay: Inhibitory concentration of compound against formation of Echovirus 29 virus plaque in plaque reduction assay; format: functional, organism-based
[11] = tested on: Human alphaherpesvirus 1; assay: Inhibitory concentration of compound against formation of Herpes simplex virus 1 plaque in plaque reduction assay
[12] = tested on: Human rhinovirus sp.; assay: Inhibitory concentration of compound against formation of Human rhinovirus 2 plaque in plaque reduction assay; format: functional, organism-based
[13] = tested on: Coxsackievirus; assay: Inhibitory concentration of compound against formation of Coxsackievirus B5 plaque in plaque reduction assay; format: functional, organism-based
[14] = tested on: Rhabdomyosarcoma cell; assay: Cytotoxic effect of compound towards human Rhabdomyosarcoma cell line was evaluated; format: functional, cell-based
[15] = tested on: Enterovirus; assay: Inhibitory concentration to prevent formation of Enterovirus (EV 71) plaques; format: functional, organism-based
[16] = tested on: Coxsackievirus; assay: Inhibitory concentration to prevent formation of Coxsackievirus B3 (CVB3) plaques; format: functional, organism-based

Structure (SMILES)	IC50 [14]	IC50 [15]	IC50 [16]	also measured
O=C1N(CCCCCCOc2ccc(Br)cc2)CCN1c1ccncc1	–	–	–	IC50 [1]: > 25 µM; IC50 [2]: 2.82 µM; IC50 [3]: 11.6 µM; IC50 [4]: > 25 µM; IC50 [5]: > 25 µM; IC50 [6]: > 25 µM; IC50 [7]: > 25 µM; IC50 [8]: > 25 µM; IC50 [9]: > 25 µM; IC50 [10]: > 25 µM; IC50 [11]: > 25 µM; IC50 [12]: > 25 µM; IC50 [13]: > 25 µM
Cc1ccsc1C(c1c(C)noc1C)N1CCN(c2ncnc3c2cnn3-c2ccccc2)CC1 (stereo unspecified)	> 25 µM	0.65 µM	0.081 µM	–
c1ccc(C(c2nccs2)N2CCN(c3ncnc4c3cnn4-c3ccccc3)CC2)cc1 (stereo unspecified)	> 25 µM	0.34 µM	0.11 µM	–
Clc1ccc(C(c2ccccc2)N2CCN(c3ncnc4c3cnn4-c3ccccc3)CC2)cc1 (stereo unspecified)	> 25 µM	1.97 µM	0.26 µM	–
FC(F)(F)c1ccc(C(c2ccccc2)N2CCN(c3ncnc4c3cnn4-c3ccccc3)CC2)cc1 (stereo unspecified)	> 25 µM	1.65 µM	0.3 µM	–
c1ccc(-c2ccc(C(c3ccccc3)N3CCN(c4ncnc5c4cnn5-c4ccccc4)CC3)cc2)cc1 (stereo unspecified)	> 25 µM	1.9 µM	0.31 µM	–
Brc1ccc(C(c2ccccc2)N2CCN(c3ncnc4c3cnn4-c3ccccc3)CC2)cc1 (stereo unspecified)	> 25 µM	0.91 µM	0.49 µM	–
c1ccc(C(c2ccco2)N2CCN(c3ncnc4c3cnn4-c3ccccc3)CC2)cc1 (stereo unspecified)	> 25 µM	1.25 µM	0.27 µM	–
c1ccc(Cn2ncc3c(N4CCN(C(c5ccccc5)c5ccccc5)CC4)ncnc32)cc1	> 25 µM	> 25 µM	> 25 µM	–
Cc1ccsc1C(c1ccccc1)N1CCN(c2ncnc3c2cnn3-c2ccccc2)CC1 (stereo unspecified)	> 25 µM	0.46 µM	0.089 µM	–
c1ccc(C(c2ccccn2)N2CCN(c3ncnc4c3cnn4-c3ccccc3)CC2)cc1 (stereo unspecified)	> 25 µM	0.37 µM	0.17 µM	–
CCCn1ncc2c(N3CCN(C(c4ccccc4)c4ccccc4)CC3)ncnc21	> 25 µM	> 25 µM	> 25 µM	–
